Results from patent US20240199648A1, “MAP4K1 INHIBITORS” (Blueprint Medicines Corporation, priority 2021, published 2024).

Columns and labels:
[1] = system: Primary T Cell; experiment: T cell enhancement of cytokines: IL2 measurement (HTRF) in expanded CD3+ T cells stimulated with anti-CD3/anti-CD28; type: cell-based, human; conditions: Homo sapiens, T-cell, 24 h, plate-bound anti-CD3 and soluble anti-CD28, 24 h, read-out: IL-2 Primary T Cell EC50
Experimental: T cells are isolated from whole blood of healthy donors by immunomagnetic negative selection following manufacture's protocol (StemCell Technologies, human T cell isolation kit). Purity of isolated cells is assessed by flow cytometry and yields 95-98% CD3^+ T cells. For expansion of T cells, 1×10^6 cells/well are plated in serum free cell expansion media (ThermoFisher) containing 30U of recombinant human IL2 (R&D) and stimulated with 25 ul of CD3/CD28 beads (Invitrogen) in 24 well plates for 3-4 days. T cells are then expanded in 175 cm flasks and maintained at a cell density of 1 to 2.5×10^6 cells/ml days by addition of ⅔ of fresh media every 2-3 days. After 10-14 days, cells are frozen in BamBanker freezing media (Thermo) and stored in liquid nitrogen.
For IL2 measurement, expanded CD3+ T cells are dispensed at 100K cells/well (cultured in X-VIVO 10 Serum-free media) and are stimulated with plate-bound anti-CD3 and soluble anti-CD28 in the presence of vehicle or compound of the disclosure at various concentrations for 24 h. As outlined in the manufacturer's protocol (Cisbio), 16 μL of conditioned media is transferred to a white 384-well low volume plate. Following a 24 h incubation with the anti-IL2 antibodies, the homogenous time resolved fluorescence (HTRF) is measured.

[2] = target: T1, MAP4K1 (HPK1) (Homo sapiens, UniProt Q92918); experiment: Inhibition of MAP4K1 biochemical enzymatic activity (EZReader 2 electrophoretic mobility shift assay); conditions: HPK1 (Invitrogen), S6K2tide 1.5 μM, 120 min; ATP 26 μM or 1000 μM (not stated which)
T1 construct: purchased Invitrogen
T1 sequence (Q92918 whole entry): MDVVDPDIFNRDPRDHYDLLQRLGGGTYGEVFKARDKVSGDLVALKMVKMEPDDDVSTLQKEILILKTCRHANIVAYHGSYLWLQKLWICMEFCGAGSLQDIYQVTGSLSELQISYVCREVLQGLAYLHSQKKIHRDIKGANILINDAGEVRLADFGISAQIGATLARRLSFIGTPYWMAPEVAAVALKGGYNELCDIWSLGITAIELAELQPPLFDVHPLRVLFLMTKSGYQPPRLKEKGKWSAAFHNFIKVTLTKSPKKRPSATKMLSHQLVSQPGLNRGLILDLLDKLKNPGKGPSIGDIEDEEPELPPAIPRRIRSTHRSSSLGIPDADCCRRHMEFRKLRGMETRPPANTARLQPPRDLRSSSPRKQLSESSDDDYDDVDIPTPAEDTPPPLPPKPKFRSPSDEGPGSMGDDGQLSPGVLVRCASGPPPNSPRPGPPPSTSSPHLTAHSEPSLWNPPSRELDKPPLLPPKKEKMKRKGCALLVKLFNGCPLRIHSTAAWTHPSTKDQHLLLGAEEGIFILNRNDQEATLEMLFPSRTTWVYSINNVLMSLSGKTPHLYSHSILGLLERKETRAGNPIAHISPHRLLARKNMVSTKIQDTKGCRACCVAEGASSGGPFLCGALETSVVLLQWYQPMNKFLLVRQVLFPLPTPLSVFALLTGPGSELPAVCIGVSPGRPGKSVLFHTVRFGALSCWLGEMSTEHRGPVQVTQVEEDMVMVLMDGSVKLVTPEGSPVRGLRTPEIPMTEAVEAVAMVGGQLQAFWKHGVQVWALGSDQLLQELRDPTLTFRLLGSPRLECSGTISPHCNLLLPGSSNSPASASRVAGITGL
Text: MAP4K1 (HPK1) and relevant off-target enzymatic activity was monitored using the Perkin Elmer electrophoretic mobility shift technology platform—the EZReader 2. […] Within the linear, steady-state phase of the kinase enzymatic reaction, the mixed pool of phosphorylated (product) and non-phosphorylated (substrate) peptides was passed through the microfluidic system of the PerkinElmer EZ Reader 2, under an applied electric potential difference. The presence of the phosphate group on the product peptide provided a difference in mass and charge between that of the substrate peptide, resulting in a separation of the substrate and product pools in the sample (Perrin et al. 2010). As the product and substrate peptide mixture passes the lasers within the instrument, these pools are detected (λex=488 nm, λem=568 nm) and resolved as separate peaks. The ratio between these peaks reflects the activity of the compound at that concentration, in that well, under those conditions.
Inhibitors were dissolved in 100% DMSO at a stock concentration of 10 mM. A 100×, 10-point, 4-fold serial dilution of each inhibitor was created in 100% DMSO either manually or on a Hamilton STAR liquid handler, starting at a relevant concentration, usually 1 mM. A volume of 0.130 μL of each concentration was transferred to the relevant wells of a 384-well plate (Greiner 781 201) in diplicate using a TTPLabtech Mosquito nano-litre dispenser. Using a Multidrop Combi, the remaining constituents of the kinase reaction were added to the 130 nL of dosed compound as follows (see table below for final reaction details):
Enzyme activity assays at the ^APPKM for ATP or 1 mM ATP: In each well of a 384-well plate, 0.1-15 nM of untreated enzyme was incubated in a total of 13 μL of buffer (100 mM HEPES pH 7.5, 0.015% Brij 35, 10 mM MgCl2, 1 mM DTT) with 1.5 μM fluorescent peptid and 20-1000 μM ATP, at 25° C., for 60-180 minutes in the presence or absence of a dosed concentration series of compound (1% DMSO final concentration). The kinase reactions were stopped by the addition of 70 μl of Stop buffer (100 mM HEPES pH 7.5, 0.015% Brij 35, 35 mM EDTA and 0.2% of Coating Reagent 3 (Caliper Lifesciences)). The plates were read on a Caliper EZReader 2 as described above.

CC(=O)N1CC(Oc2ncc(C(C)(C)N)c3cc(Nc4ccc5c(n4)[C@@H](C)C(C)(C)OC5=O)ncc23)C1 [Compound 4, (R)-2-((8-((1-Acetylazetidin-3-yl)oxy)-5-(2-aminopropan-2-yl)-2,7-naphthyridin-3-yl)amino)-7,7,8-trimethyl-7,8-dihydro-5H-pyrano[4,3-b]pyridin-5-one] gave an EC50 [1] of 19.9 nM and an IC50 [2] of 0.15 nM.
Work on C[C@@H]1OC(=O)c2ccc(Nc3cc4c(C(C)(C)N)cnc(OC5CN(C(=O)C6CC6)C5)c4cn3)nc2[C@H]1C [Compound 5] yielded an EC50 [1] of 17.7 nM and an IC50 [2] of 0.17 nM.
With CCC(=O)N1CC(Oc2ncc(C(C)(C)N)c3cc(Nc4ccc5c(n4)[C@@H](C)C(C)(C)OC5=O)ncc23)C1 [Compound 6] the EC50 [1] was 22.5 nM and the IC50 [2] was 0.2 nM.
Compound CC(=O)N1C[C@@H](Oc2ncc(C(C)(C)N)c3cc(Nc4ccc5c(n4)[C@@H](C)C(C)(C)OC5=O)ncc23)[C@@H]1C [Compound 7] has an EC50 [1] of 22.3 nM and an IC50 [2] of 0.12 nM.
With C[C@@H]1c2nc(Nc3cc4c(C(C)(C)N)cnc(OC5CN(C(=O)C6CC6)C5)c4cn3)ccc2C(=O)OC1(C)C [Compound 8] the EC50 [1] was 32.7 nM and the IC50 [2] was 0.16 nM.
With C[C@@H]1OC(=O)c2ccc(Nc3cc4c(C(C)(C)N)cnc(OC5CN(C(=O)[C@H]6C[C@H]6F)C5)c4cn3)nc2[C@H]1C [Compound 9] the EC50 [1] was 16.8 nM and the IC50 [2] was 0.16 nM.
Compound C[C@@H]1OC(=O)c2ccc(Nc3cc4c(C(C)(C)N)cnc(OC5CN(C(=O)[C@@H]6C[C@@H]6F)C5)c4cn3)nc2[C@H]1C [Compound 10] has an EC50 [1] of 8.1 nM and an IC50 [2] of 0.13 nM.
In the case of C[C@@H]1c2nc(Nc3cc4c(C(C)(C)N)cnc(OC5CN(C(=O)[C@@H]6C[C@@H]6F)C5)c4cn3)ccc2C(=O)OC1(C)C [Compound 12], the EC50 [1] is reported as 10.5 nM and the IC50 [2] is reported as 0.16 nM.
For C[C@@H]1c2nc(Nc3cc4c(C(C)(C)N)cnc(OC5CN(C(=O)[C@H]6C[C@H]6F)C5)c4cn3)ccc2C(=O)OC1(C)C [Compound 13, (R)-2-((5-(2-aminopropan-2-yl)-8-((1-((1R,2R)-2-fluorocyclopropane-1-carbonyl)azetidin-3-yl)oxy)-2,7-naphthyridin-3-yl)amino)-7,7,8-trimethyl-7,8-dihydro-5H-pyrano[4,3-b]pyridin-5-one], the EC50 [1] was 23.2 nM and the IC50 [2] was 0.17 nM.
With C[C@@H]1c2nc(Nc3cc4c(C(C)(C)N)cnc(O[C@@H]5CN(C(=O)[C@@H]6C[C@@H]6F)[C@H]5C)c4cn3)ccc2C(=O)OC1(C)C [Compound 14] the EC50 [1] was 15.3 nM and the IC50 [2] was 0.19 nM.
In the case of COC1CN(C(=O)[C@H]2C[C@@H](Oc3ncc(C(C)(C)N)c4cc(Nc5ccc6c(n5)[C@@H](C)C(C)(C)OC6=O)ncc34)C2)C1 [Compound 15, (R)-2-((5-(2-aminopropan-2-yl)-8-((cis)-3-(3-methoxyazetidine-1-carbonyl)cyclobutoxy)-2,7-naphthyridin-3-yl)amino)-7,7,8-trimethyl-7,8-dihydro-5H-pyrano[4,3-b]pyridin-5-one], the EC50 [1] is reported as 42 nM and the IC50 [2] is reported as 0.13 nM.
CC(=O)N1CC(Oc2ccc(C(C)(C)N)c3cc(Nc4ccc5c(n4)[C@@H](C)[C@H](C)OC5=O)ncc23)C1 [Compound 19] showed an EC50 [1] of 41.1 nM and an IC50 [2] of 0.2 nM.
With CC(=O)N1CC(Oc2ccc(C(C)(C)N)c3cc(Nc4ccc5c(n4)[C@@H](C)C(C)(C)OC5=O)ncc23)C1 [Compound 21, (R)-2-((8-((1-Acetylazetidin-3-yl)oxy)-5-(2-aminopropan-2-yl)isoquinolin-3-yl)amino)-7,7,8-trimethyl-7,8-dihydro-5H-pyrano[4,3-b]pyridin-5-one] the EC50 [1] was 16.8 nM and the IC50 [2] was 0.14 nM.
In the case of CC(=O)N1CC(Nc2ncc(C(C)(C)N)c3cc(Nc4ccc5c(n4)[C@@H](C)C(C)(C)OC5=O)ncc23)C1 [Compound 22], the EC50 [1] is reported as 479 nM and the IC50 [2] is reported as 0.54 nM.
C[C@@H]1OC(=O)c2ccc(Nc3cc4c(C(C)(C)N)ccc(OC5CN(C(=O)C6CC6)C5)c4cn3)nc2[C@H]1C [Compound 29] gave an EC50 [1] of 11 nM and an IC50 [2] of 0.12 nM.
In the case of C[C@@H]1c2nc(Nc3cc4c(C(C)(C)N)cnc(OCCN5CCCC5=O)c4cn3)ccc2C(=O)OC1(C)C [Compound 31], the EC50 [1] is reported as 42.8 nM and the IC50 [2] is reported as 0.21 nM.
With C[C@@H]1OC(=O)c2ccc(Nc3cc4c(C(C)(C)N)cnc(O[C@H]5C[C@@H](C(=O)N(C)C)C5)c4cn3)nc2[C@H]1C [Compound 33] the EC50 [1] was 9.2 nM and the IC50 [2] was 0.15 nM.
Compound C[C@@H]1OC(=O)c2ccc(Nc3cc4c(C(C)(C)N)cnc(OC5CN(C(=O)N(C)C)C5)c4cn3)nc2[C@H]1C [Compound 34] has an EC50 [1] of 43.3 nM and an IC50 [2] of 0.19 nM.
Work on C[C@@H]1c2nc(Nc3cc4c(C(C)(C)N)cnc(OCCCC(=O)N(C)C)c4cn3)ccc2C(=O)OC1(C)C [Compound 39] yielded an EC50 [1] of 14 nM and an IC50 [2] of 0.14 nM.
With CC[C@@](C)(N)c1cnc(OC2CN(C(=O)C3CC3)C2)c2cnc(Nc3ccc4c(n3)[C@@H](C)[C@H](C)OC4=O)cc12 [Compound 49] the EC50 [1] was 25.7 nM and the IC50 [2] was 0.24 nM.
With C[C@@H]1OC(=O)c2ccc(Nc3cc4c(C(C)(C)N)cnc(OC5CN(C(=O)C6COC6)C5)c4cn3)nc2[C@H]1C [Compound 54] the EC50 [1] was 29.3 nM and the IC50 [2] was 0.21 nM.
COC[C@@](C)(N)c1ccc(OC2CN(C(C)=O)C2)c2cnc(Nc3ccc4c(n3)[C@@H](C)C(C)(C)OC4=O)cc12 [Compound 56] gave an EC50 [1] of 23.8 nM and an IC50 [2] of 0.17 nM.
For C[C@@H]1c2nc(Nc3cc4c(C(C)(C)N)cnc(OC5CN(C(=O)N(C)C)C5)c4cn3)ccc2C(=O)OC1(C)C [Compound 57], the EC50 [1] was 21.1 nM and the IC50 [2] was 0.13 nM.
COC[C@@](C)(N)c1cnc(OC2CN(C(C)=O)C2)c2cnc(Nc3ccc4c(n3)[C@@H](C)C(C)(C)OC4=O)cc12 [Compound 62] was tested, and the EC50 [1] was 107 nM and the IC50 [2] was 0.29 nM.
CC(C)(N)c1cnc(OC2CN(C(=O)C3CC3)C2)c2cnc(Nc3ccc4c(n3)C3(CC3)C(C)(C)OC4=O)cc12 [Compound 63] showed an EC50 [1] of 23.2 nM and an IC50 [2] of 0.19 nM.
In the case of C[C@@H]1c2nc(Nc3cc4c(C(C)(C)N)cnc(O[C@@H]5CN(C(=O)C6CC6)[C@H]5C)c4cn3)ccc2C(=O)OC1(C)C [Compound 65], the EC50 [1] is reported as 17.5 nM and the IC50 [2] is reported as 0.2 nM.
For CC[C@@](C)(N)c1cnc(OC2CN(C(=O)C3CC3)C2)c2cnc(Nc3ccc4c(n3)[C@@H](C)C(C)(C)OC4=O)cc12 [Compound 70], the EC50 [1] was 12.5 nM and the IC50 [2] was 0.18 nM.
C[C@@H]1c2nc(Nc3cc4c(C(C)(C)N)cnc(OC5CN(C(=O)N6CCC6)C5)c4cn3)ccc2C(=O)OC1(C)C [Compound 72] was tested, and the EC50 [1] was 30.5 nM and the IC50 [2] was 0.21 nM.
Work on C[C@@H]1OC(=O)c2ccc(Nc3cc4c(C(C)(C)N)cnc(OC5CN(C(=O)[C@@H]6CCCO6)C5)c4cn3)nc2[C@H]1C [Compound 76] yielded an EC50 [1] of 47.3 nM and an IC50 [2] of 0.17 nM.
Compound C[C@@H]1c2nc(Nc3cc4c(C(C)(C)N)cnc(OC5CN(C(=O)C6COC6)C5)c4cn3)ccc2C(=O)OC1(C)C [Compound 77] has an EC50 [1] of 47.8 nM and an IC50 [2] of 0.36 nM.
Compound COC[C@@](C)(N)c1cnc(OC2CN(C(=O)C3CC3)C2)c2cnc(Nc3ccc4c(n3)[C@@H](C)[C@H](C)OC4=O)cc12 [Compound 80] has an EC50 [1] of 62.9 nM and an IC50 [2] of 0.17 nM.
Compound C[C@@H]1OC(=O)c2ccc(Nc3cc4c(C(C)(C)N)cnc(OC5CN(C(=O)[C@@H]6C[C@@H]6F)[C@H]5C)c4cn3)nc2[C@H]1C (stereo partly drawn) [Compound 85] has an EC50 [1] of 17.8 nM and an IC50 [2] of 0.1 nM.
For COC1CN(C(=O)[C@H]2C[C@@H](Oc3ncc(C(C)(C)N)c4cc(Nc5ccc6c(n5)[C@@H](C)[C@H](C)OC6=O)ncc34)C2)C1 [Compound 92], the EC50 [1] was 34 nM and the IC50 [2] was 0.17 nM.
